Results from US8952024B2, “Herbicidal pyrimidone derivatives” (E I du Pont de Nemours and Company, priority 2009, dated 2015).

Tests used:
Assay type in all cases: in vivo
[1] = system: green foxtail (Setaria viridis); test: Test B pre-/postemergence plant response
In short: (§1)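 Pre-em in loam/sand; post-em at 1–4 leaf (2–18 cm) in peat mix. Solvent + surfactant formulation. Greenhouse 13–15 d; visual % control vs untreated, 0–100.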

[2] = system: ragweed (common ragweed, Ambrosia elatior); test: Test B pre-/postemergence plant response
In short: as §1

[3] = system: giant foxtail (Setaria faberii); test: Test B pre-/postemergence plant response
In short: as §1

[4] = system: morningglory (Ipomoea coccinea); test: Test B pre-/postemergence plant response
In short: as §1

[5] = system: Italian ryegrass (Lolium multiflorum); test: Test B pre-/postemergence plant response
In short: as §1

[6] = system: pigweed (Amaranthus retroflexus); test: Test B pre-/postemergence plant response
In short: as §1

[7] = system: johnsongrass (Sorghum halepense); test: Test B pre-/postemergence plant response
In short: as §1

[8] = system: velvetleaf (Abutilon theophrasti); test: Test B pre-/postemergence plant response
In short: as §1

[9] = system: downy bromegrass (Bromus tectorum); test: Test B pre-/postemergence plant response
In short: as §1

[10] = system: soybean (Glycine max); test: Test B pre-/postemergence plant response
In short: as §1

[11] = system: goosegrass (Eleusine indica); test: Test B pre-/postemergence plant response
In short: as §1

[12] = system: blackgrass (Alopecurus myosuroides); test: Test B pre-/postemergence plant response
In short: as §1

[13] = system: bermudagrass (Cynodon dactylon); test: Test B pre-/postemergence plant response
In short: as §1

[14] = system: wheat (Triticum aestivum); test: Test B pre-/postemergence plant response
In short: as §1

[15] = system: corn (Zea mays); test: Test B pre-/postemergence plant response
In short: as §1

[16] = system: canarygrass (Phalaris minor); test: Test B postemergence plant response; conditions: Postemergence
In short: (§2)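 Plants grown in peat/vermiculite medium were sprayed postemergence at 2–18 cm height (1- to 4-leaf stage). After 13–15 days in the greenhouse, response was rated visually against untreated controls on a 0–100 scale (0 no effect, 100 complete control).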

[17] = system: winter barley (Hordeum vulgare); test: Test B postemergence plant response; conditions: Postemergence
In short: as §2

[18] = system: chickweed (Stellaria media); test: Test B postemergence plant response; conditions: Postemergence
In short: as §2

[19] = 250 g ai/ha, Preemergence, 0 to 100 scale
[20] = Postemergence, 31 g ai/ha, scale 0 to 100 (0 no effect, 100 complete control)
[21] = Postemergence, 62 g ai/ha, scale 0 (no effect) to 100 (complete control), 13 to 15 days
[22] = Postemergence, 125 g ai/ha, visual rating after 13 to 15 days, scale 0 (no effect) to 100 (complete control)
[23] = Postemergence, 250 g ai/ha, scale 0 to 100
[24] = Preemergence, 125 g ai/ha, 0 to 100 scale
[25] = Preemergence, 31 g ai/ha, scale 0 to 100 (0 no effect, 100 complete control)
[26] = Preemergence, 62 g ai/ha, scale 0 to 100, 0 no effect, 100 complete control
[27] = 31 g ai/ha, scale 0 to 100 (0 no effect, 100 complete control)
[28] = 62 g ai/ha, scale 0 (no effect) to 100 (complete control), 13 to 15 days
[29] = 125 g ai/ha, visual rating after 13 to 15 days, scale 0 (no effect) to 100 (complete control)

In the case of `Cc1ccc(-n2c(-c3cccc(Cl)c3)ncc(C(=O)C3=C(O)CCCC3=O)c2=O)cc1` [Compound 39], the “Plant response rating, Foxtail, Green” value [1, 19] is reported as 100, the “Plant response rating, Foxtail, Green” value [1, 20] is reported as 80 and the “Plant response rating, Foxtail, Green” value [1, 21] is reported as 80. The “Plant response rating, Foxtail, Green” value [1, 22] was 90, the “Foxtail, Green plant response rating” value [1, 23] was 90 and the “Foxtail, Green plant response rating” value [1, 24] was 75. For the same compound, the “Plant response rating, Ragweed” value [2, 19] was 95, the “Plant response rating, Ragweed” value [2, 21] was 85 and the “Plant response rating, Ragweed” value [2, 22] was 95. For the same compound, the “Plant response rating, Ragweed” value [2, 25] was 0, the “Ragweed plant response rating” value [2, 24] was 75 and the “Plant response rating, Foxtail, Giant” value [3, 19] was 75. For the same compound, the “Plant response rating, Foxtail, Giant” value [3, 20] was 75, the “Plant response rating, Foxtail, Giant” value [3, 21] was 85 and the “Plant response rating, Foxtail, Giant” value [3, 22] was 95. For the same compound, the “Foxtail, Giant plant response rating” value [3, 23] was 95, the “Plant response rating, Foxtail, Giant” value [3, 25] was 0 and the “Plant response rating, Foxtail, Giant” value [3, 26] was 45. The “Foxtail, Giant plant response rating” value [3, 24] was 70, the “Plant response rating, Morningglory” value [4, 19] was 100 and the “Plant response rating, Morningglory” value [4, 21] was 75. The “Plant response rating, Morningglory” value [4, 22] was 75, the “Plant response rating, Morningglory” value [4, 25] was 0 and the “Plant response rating, Morningglory” value [4, 26] was 0. For the same compound, the “Morningglory plant response rating” value [4, 24] was 15, the “Plant response rating, Ryegrass, Italian” value [5, 19] was 0 and the “Plant response rating, Ryegrass, Italian” value [5, 21] was 5. For the same compound, the “Plant response rating, Ryegrass, Italian” value [5, 22] was 5, the “Plant response rating, Ryegrass, Italian” value [5, 25] was 0 and the “Ryegrass, Italian plant response rating” value [5, 24] was 0. For the same compound, the “Plant response rating, Pigweed” value [6, 19] was 100, the “Plant response rating, Pigweed” value [6, 21] was 100 and the “Plant response rating, Pigweed” value [6, 22] was 100. The “Plant response rating, Pigweed” value [6, 25] was 90, the “Pigweed plant response rating” value [6, 24] was 100 and the “Plant response rating, Johnsongrass” value [7, 19] was 75. The “Plant response rating, Johnsongrass” value [7, 21] was 65, the “Plant response rating, Johnsongrass” value [7, 22] was 90 and the “Johnsongrass plant response rating” value [7, 23] was 98. The “Plant response rating, Johnsongrass” value [7, 25] was 0, the “Plant response rating, Johnsongrass” value [7, 26] was 60 and the “Johnsongrass plant response rating” value [7, 24] was 65. The “Plant response rating, Velvetleaf” value [8, 19] was 98, the “Plant response rating, Velvetleaf” value [8, 21] was 80 and the “Plant response rating, Velvetleaf” value [8, 22] was 80. For the same compound, the “Plant response rating, Velvetleaf” value [8, 25] was 15, the “Velvetleaf plant response rating” value [8, 24] was 75 and the “Plant response rating, Bromegrass, Downy” value [9, 19] was 0. For the same compound, the “Plant response rating, Bromegrass, Downy” value [9, 20] was 0, the “Plant response rating, Bromegrass, Downy” value [9, 21] was 0 and the “Plant response rating, Bromegrass, Downy” value [9, 22] was 0. For the same compound, the “Bromegrass, Downy plant response rating” value [9, 23] was 0, the “Plant response rating, Bromegrass, Downy” value [9, 25] was 0 and the “Plant response rating, Bromegrass, Downy” value [9, 26] was 0. The “Bromegrass, Downy plant response rating” value [9, 24] was 0, the “Plant response rating, Soybean” value [10, 19] was 0 and the “Plant response rating, Soybean” value [10, 21] was 95. The “Plant response rating, Soybean” value [10, 22] was 98, the “Plant response rating, Soybean” value [10, 25] was 0 and the “Soybean plant response rating” value [10, 24] was 0. For the same compound, the “Plant response rating, Goosegrass” value [11, 19] was 100, the “Plant response rating, Goosegrass” value [11, 21] was 55 and the “Plant response rating, Goosegrass” value [11, 22] was 65. For the same compound, the “Goosegrass plant response rating” value [11, 23] was 75, the “Plant response rating, Goosegrass” value [11, 25] was 85 and the “Goosegrass plant response rating” value [11, 24] was 100. For the same compound, the “Plant response rating, Blackgrass” value [12, 19] was 0, the “Plant response rating, Blackgrass” value [12, 20] was 0 and the “Plant response rating, Blackgrass” value [12, 21] was 0. The “Plant response rating, Blackgrass” value [12, 22] was 0, the “Blackgrass plant response rating” value [12, 23] was 20 and the “Plant response rating, Blackgrass” value [12, 25] was 0. For the same compound, the “Plant response rating, Blackgrass” value [12, 26] was 0, the “Blackgrass plant response rating” value [12, 24] was 0 and the “Plant response rating, Bermudagrass” value [13, 19] was 100. For the same compound, the “Plant response rating, Bermudagrass” value [13, 20] was 50, the “Plant response rating, Bermudagrass” value [13, 21] was 60 and the “Plant response rating, Bermudagrass” value [13, 22] was 85. The “Bermudagrass plant response rating” value [13, 23] was 100, the “Plant response rating, Bermudagrass” value [13, 25] was 85 and the “Plant response rating, Bermudagrass” value [13, 26] was 100. The “Bermudagrass plant response rating” value [13, 24] was 100, the “Plant response rating, Wheat” value [14, 19] was 0 and the “Plant response rating, Wheat” value [14, 21] was 5. For the same compound, the “Plant response rating, Wheat” value [14, 22] was 5, the “Plant response rating, Wheat” value [14, 25] was 0 and the “Wheat plant response rating” value [14, 24] was 0. For the same compound, the “Plant response rating, Corn” value [15, 19] was 0, the “Plant response rating, Corn” value [15, 20] was 25 and the “Plant response rating, Corn” value [15, 21] was 45. The “Plant response rating, Corn” value [15, 22] was 45, the “Corn plant response rating” value [15, 23] was 65 and the “Plant response rating, Corn” value [15, 25] was 0. For the same compound, the “Plant response rating, Corn” value [15, 26] was 0, the “Corn plant response rating” value [15, 24] was 0 and the “Plant response rating, Canarygrass” value [16, 27] was 0. The “Plant response rating, Canarygrass” value [16, 28] was 0, the “Plant response rating, Canarygrass” value [16, 29] was 0 and the “Canarygrass plant response rating” value ([16]; 250 g ai/ha, scale 0 to 100) was 20. The “Plant response rating, Barley” value [17, 27] was 0, the “Plant response rating, Barley” value [17, 28] was 0 and the “Plant response rating, Barley” value [17, 29] was 0. For the same compound, the “Barley plant response rating” value ([17]; 250 g ai/ha, scale 0 to 100) was 10, the “Plant response rating, Chickweed” value [18, 27] was 98 and the “Plant response rating, Chickweed” value [18, 28] was 100. The “Plant response rating, Chickweed” value [18, 29] was 100 and the “Chickweed plant response rating” value ([18]; 250 g ai/ha, scale 0 to 100) was 100.
